Experimental data reported in patent US20210323940A1 (OCEANS LTD., priority 2018, published 2021).

How the values were obtained:
Assay type in all cases: cell-based, human
[1] = tested on: MDA-MB-231 (mammary gland adenocarcinoma); assay: CIMA assay (MTT, 72 h); details: MDA-MB
Protocol: Experimental: Stock solutions of the test compounds were prepared in dimethylsulfoxide (DMSO) at 10 mg/ml and stored at −20° C. until used. This preparation ensures that the DMSO content delivered to cells in culture never exceeds 1%. […] Cell proliferation was initially assessed using a standard colorimetric indicator of metabolic activity (CIMA) assay. In this assay, reduction of yellow tetrazolium salt (MTT) to purple formazan by mitochondrial reductases enzymes in viable cells were measured as change in absorbance (λ=500-600).
(§1) Seven human cell lines were evaluated: U373 (glioblastoma-astrocytoma), A549 (lung carcinoma), PC3 (prostate adenocarcinoma), THP1 (acute monocytic leukemia), MDA-MB-231 (mammary gland adenocarcinoma), SKOV3 (ovarian adenocarcinoma) and CCD1079Sk (normal skin fibroblast) cells.

A549 (lung carcinoma) = assay: CIMA assay (tetrazolium reduction, cell viability, 72 h); details: A549
Protocol: (§2) Prepared extracts were assessed following chronic exposure conditions in which cells were seeded at 2×10^3 cells/well (96 wells-plate) and incubated with test compounds for 72 h. Each compound was evaluated over a range of concentrations (0, 10, 25, 50 or 100 μg/ml). Cell proliferation was initially assessed using a standard colorimetric indicator of metabolic activity (CIMA) assay. In this assay, tetrazole reduction was evaluated as a measure of metabolic function that evaluates mitochondrial activity to determine the extent of cell proliferation within a culture. This assay is based on the reduction of yellow tetrazolium salt to purple formazan by mitochondrial reductases enzyme in viable cells, resulting in a color change that confers a change in absorbance. Seven human cell lines were selected for primary evaluation: U373 (glioblastoma-astrocytoma), A549 (lung carcinoma), THP-1 (acute monocytic leukemia), MCF7 (mammary gland adenocarcinoma), SKOV3 (ovarian adenocarcinoma), PC3 (prostate adenocarcinoma) and CCD1079SK (fibroblast, noncancerous but proliferating) (see FIG. 2 and Table 2). Results are expressed in Table 2 as % viability (means±standard deviation of three replicates), with LD50/IC50 values in Tables 3 and 6. […] The maximum DMSO concentration was 1% at 100 μg/ml with 5% SDS used as a known toxic inducer.
(§3) Experimental: Stock solutions of the test compounds were prepared in dimethylsulfoxide (DMSO) at 10 mg/ml and stored at −20° C. until used. This preparation ensures that the DMSO content delivered to cells in culture never exceeds 1%. Appropriate cells number, based on previous assays, were seeded in 96 well plate and incubated with test compounds (up to 8 log concentrations, 0 to 50 or 100 μg/ml) for 72 h. Cell proliferation was initially assessed using a standard colorimetric indicator of metabolic activity (CIMA) assay. In this assay, reduction of yellow tetrazolium salt (MTT) to purple formazan by mitochondrial reductases enzymes in viable cells were measured as change in absorbance (λ=500-600).
as §1

[2] = tested on: THP-1 (acute monocytic leukemia); assay: as above; details: THP-1
Protocol: as §2, §3, §1

[3] = tested on: U373 (glioblastoma-astrocytoma); assay: as above; details: U373
Protocol: as §2, §3, §1

[4] = tested on: SKOV3 (ovarian adenocarcinoma); assay: as above; details: SKOV
Protocol: as §2, §3, §1

[5] = tested on: CCD1079SK (fibroblast, noncancerous but proliferating); assay: as above; details: CCD
Protocol: as §2, §3, §1

[6] = tested on: PC3 (prostate adenocarcinoma); assay: as above; details: PC3
Protocol: as §2, §3, §1

## CCCCCC(O)C(O)/C=C/C1CCCCCCCC(=O)O1 (racemic) [compound (I), 12,13-dihydroxy-10-octadecen-9-olide]
[1]; 1 ug/mL
  fold change viability (AVG): 1.10
[1]; 10 ug/mL
  fold change viability (AVG): 1.05
[1]; 50 ug/mL
  fold change viability (AVG): 0.72
[1]; 100 ug/mL
  fold change viability (AVG): 0.21
A549 (lung carcinoma); 1 ug/mL
  fold change viability (AVG): 1.11
A549 (lung carcinoma); 10 ug/mL
  fold change viability (AVG): 1.09
A549 (lung carcinoma); 50 ug/mL
  fold change viability (AVG): 1.08
A549 (lung carcinoma); 100 ug/mL
  fold change viability (AVG): 0.72
[2]; 1 ug/mL
  fold change viability (AVG): 1.09
[2]; 10 ug/mL
  fold change viability (AVG): 0.95
[2]; 50 ug/mL
  fold change viability (AVG): 0.77
[2]; 100 ug/mL
  fold change viability (AVG): 0.50
[3]; 1 ug/mL
  fold change viability (AVG): 0.92
[3]; 10 ug/mL
  fold change viability (AVG): 0.86
[3]; 50 ug/mL
  fold change viability (AVG): 0.69
[3]; 100 ug/mL
  fold change viability (AVG): 0.03
[4]; 1 ug/mL
  fold change viability (AVG): 1.04
[4]; 10 ug/mL
  fold change viability (AVG): 1.05
[4]; 50 ug/mL
  fold change viability (AVG): 1.01
[4]; 100 ug/mL
  fold change viability (AVG): 0.92
[5]; 1 ug/mL
  fold change viability (AVG): 1.00
[5]; 10 ug/mL
  fold change viability (AVG): 0.92
[5]; 50 ug/mL
  fold change viability (AVG): 0.99
[5]; 100 ug/mL
  fold change viability (AVG): 0.18
[6]; 1 ug/mL
  fold change viability (AVG): 1.03
[6]; 10 ug/mL
  fold change viability (AVG): 0.96
[6]; 50 ug/mL
  fold change viability (AVG): 1.01
[6]; 100 ug/mL
  fold change viability (AVG): 0.19

## CCCCCCCCCCCCOS(=O)(=O)[O-].[Na+] [SDS, reference compound]
[1]; positive control, 250 ug/ml
  average cell viability: 14
